Data: PubChem BioAssay (NCI)
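Five compound concentrations were applied to cells in 96-well plates for 48 hours; endpoints were derived by simple linear interpolation of the resulting dose-response curve. GI50 = concentration required for 50% inhibition of growth. TGI denotes the concentration required for complete inhibition of growth.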

What was measured:
Test in all cases: inhibition of tumour cell growth, NCI panel, 48 h
OVCAR-3 ovarian = test system: OVCAR-3 ovarian
OVCAR-5 ovarian = test system: OVCAR-5 ovarian
UACC-257 melanoma = test system: UACC-257 melanoma
COLO 205 colon = test system: COLO 205 colon
SW-620 colon = test system: SW-620 colon
786-0 renal = test system: 786-0 renal
DMS 273 small cell lung = test system: DMS 273 small cell lung
SNB-19 CNS = test system: SNB-19 CNS
NCI/ADR-RES ovarian = test system: NCI/ADR-RES ovarian
MDA-N = test system: MDA-N

## CC[PH+](CC)CC.CC[PH+](CC)CC.[Au]
OVCAR-3 ovarian
  GI50: 18.2 µM
  TGI: 33.2 µM
OVCAR-5 ovarian
  GI50: 25.8 µM
  TGI: 41.5 µM
UACC-257 melanoma
  GI50: 11.4 µM
  TGI: 24.4 µM
COLO 205 colon
  GI50: 2.52 µM
  TGI: 7.32 µM
SW-620 colon
  GI50: 5.13 µM
  TGI: 15.6 µM
786-0 renal
  GI50: 7.35 µM
  TGI: 19.7 µM
DMS 273 small cell lung
  GI50: 17 µM
  TGI: 38.3 µM
SNB-19 CNS
  GI50: 13.4 µM
  TGI: 26.4 µM

## C=C1C(=O)C2=CC1CCC(=O)C1(C)CCC(OC(C)=O)C(C)(C)C1CC2O (configuration not stated)
OVCAR-3 ovarian
  TGI: 15.8 µM
OVCAR-5 ovarian
  TGI: 18.9 µM
NCI/ADR-RES ovarian
  TGI: 24.9 µM
UACC-257 melanoma
  TGI: 17 µM
MDA-N
  TGI: 4.41 µM
COLO 205 colon
  TGI: 2.47 µM
SW-620 colon
  TGI: > 100 µM
786-0 renal
  TGI: > 37.7 µM
SNB-19 CNS
  TGI: 15 µM

## COc1ccc(OC)c(/C=C/c2ccnc3ccccc23)c1
OVCAR-3 ovarian
  TGI: 1.76 µM
OVCAR-5 ovarian
  TGI: 16 µM
NCI/ADR-RES ovarian
  TGI: 1.56 µM
UACC-257 melanoma
  TGI: 18.8 µM
MDA-N
  TGI: 0.286 µM
COLO 205 colon
  TGI: 0.863 µM
SW-620 colon
  TGI: 16.2 µM
786-0 renal
  TGI: 15.4 µM
SNB-19 CNS
  TGI: 13.2 µM

## O=C(O)CN(c1ccc(F)cc1)S(=O)(=O)c1ccccc1
OVCAR-3 ovarian
  TGI: > 100 µM
OVCAR-5 ovarian
  TGI: > 100 µM
UACC-257 melanoma
  TGI: > 100 µM
COLO 205 colon
  TGI: > 100 µM
SW-620 colon
  TGI: > 100 µM
786-0 renal
  TGI: > 100 µM
DMS 273 small cell lung
  TGI: > 100 µM
SNB-19 CNS
  TGI: > 100 µM

## O=C1C(=O)N(c2ccc(Cl)cc2)C(=O)C(=Nc2cccc3c(=O)[nH][nH]c(=O)c23)C1c1nc2ccccc2o1 (configuration not stated)
OVCAR-3 ovarian
  TGI: > 100 µM
OVCAR-5 ovarian
  TGI: > 100 µM
UACC-257 melanoma
  TGI: > 100 µM
COLO 205 colon
  TGI: > 100 µM
SW-620 colon
  TGI: > 100 µM
786-0 renal
  TGI: > 100 µM
DMS 273 small cell lung
  TGI: > 100 µM
SNB-19 CNS
  TGI: > 100 µM

## [Cu+2].[NH-]C(CC(=O)O)C(=O)O.[NH-]C(CC(=O)O)C(=O)O (configuration not stated)
OVCAR-3 ovarian
  GI50: > 100 µM
  TGI: > 100 µM
OVCAR-5 ovarian
  GI50: > 100 µM
  TGI: > 100 µM
NCI/ADR-RES ovarian
  GI50: > 100 µM
  TGI: > 100 µM
UACC-257 melanoma
  GI50: > 100 µM
  TGI: > 100 µM
MDA-N
  GI50: > 100 µM
  TGI: > 100 µM
COLO 205 colon
  GI50: > 100 µM
  TGI: > 100 µM
SW-620 colon
  GI50: > 100 µM
  TGI: > 100 µM
786-0 renal
  GI50: > 100 µM
  TGI: > 100 µM
SNB-19 CNS
  GI50: 49.5 µM
  TGI: > 100 µM

## O=[N+]([O-])c1oc2ccc3ccccc3c2c1CCO
OVCAR-3 ovarian
  TGI: 58.5 µM
OVCAR-5 ovarian
  TGI: 34.9 µM
NCI/ADR-RES ovarian
  TGI: 30.1 µM
UACC-257 melanoma
  TGI: 4.2 µM
MDA-N
  TGI: 4.07 µM
COLO 205 colon
  TGI: 1.46 µM
SW-620 colon
  TGI: 40.2 µM
786-0 renal
  TGI: > 50 µM
SNB-19 CNS
  TGI: 68.4 µM

## O=c1cccc2n1CC1CNC[C@H]2C1
OVCAR-3 ovarian
  TGI: > 100 µM
OVCAR-5 ovarian
  TGI: > 100 µM
NCI/ADR-RES ovarian
  TGI: > 100 µM
UACC-257 melanoma
  TGI: > 100 µM
MDA-N
  TGI: > 100 µM
COLO 205 colon
  TGI: > 100 µM
SW-620 colon
  TGI: > 100 µM
786-0 renal
  TGI: > 100 µM
SNB-19 CNS
  TGI: > 100 µM

## COc1cc(O)c2c(c1)C(=O)C1=C(C2=O)C(O)C[C@@](C)(O)C1 (some centres not stated)
OVCAR-3 ovarian
  TGI: 5.67 µM
OVCAR-5 ovarian
  TGI: 22.2 µM
UACC-257 melanoma
  TGI: 1.24 µM
COLO 205 colon
  TGI: 0.844 µM
SW-620 colon
  TGI: 2.53 µM
786-0 renal
  TGI: 9.25 µM
DMS 273 small cell lung
  TGI: 5.04 µM
SNB-19 CNS
  TGI: 14.1 µM

## O=C(CSSCC(=O)Nc1ccc(Br)cc1)Nc1ccc(Br)cc1
OVCAR-3 ovarian
  TGI: 32.1 µM
OVCAR-5 ovarian
  TGI: 41.7 µM
UACC-257 melanoma
  TGI: 37.6 µM
COLO 205 colon
  TGI: 74 µM
SW-620 colon
  TGI: 29.4 µM
786-0 renal
  TGI: 31.4 µM
DMS 273 small cell lung
  TGI: 30.8 µM
SNB-19 CNS
  TGI: 29.4 µM
